The results in this text go back to US20210009542A1 (Calico Life Sciences LLC, priority 2018, published 2021).

The assay concerns the target T1, His tagged PTPN2 (TC45) protein (Homo sapiens, UniProt P17706).
T1 construct: made in house
T1 sequence (P17706 with tags, fused parts or gaps isoform P17706-2): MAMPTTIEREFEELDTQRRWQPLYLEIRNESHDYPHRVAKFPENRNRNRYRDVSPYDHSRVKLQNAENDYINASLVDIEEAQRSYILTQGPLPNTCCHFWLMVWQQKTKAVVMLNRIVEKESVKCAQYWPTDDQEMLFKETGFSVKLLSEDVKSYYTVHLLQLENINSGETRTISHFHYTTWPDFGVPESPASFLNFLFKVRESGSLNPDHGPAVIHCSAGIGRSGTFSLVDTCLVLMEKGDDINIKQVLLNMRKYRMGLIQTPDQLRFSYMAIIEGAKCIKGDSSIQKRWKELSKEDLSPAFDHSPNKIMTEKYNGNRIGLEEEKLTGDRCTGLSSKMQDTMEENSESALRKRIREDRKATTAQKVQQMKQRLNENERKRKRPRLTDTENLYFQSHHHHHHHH
Nature of the assay: Mobility shift assay (MSA) for potency of PTPN2 inhibitors. The assay is classed as biochemical. The settings on record: read-out: PTPN2 MSA IC50. The protocol:
Compound activity was determined using in house His tagged PTPN2 (TC45) protein (SEQ ID NO: 1) in an in vitro enzymatic reaction. The enzymatic assay used to determine activity was a mobility shift assay using a LabChip EZ Reader by Caliper Life Sciences. The enzymatic reaction was carried out in assay buffer (50 mM HEPES pH 7.5, 1 mM EGTA, 10 mM EDTA, 0.01% Tween® 20, and 2 mM DTT). The compounds were dispensed on a white 384 well ProxiPlate™ (PerkinElmer Catalog #6008289) plate using the Labcyte Echo at varying concentrations (12 point, 1:3 dilution). The enzyme (at 0.5 nM) was incubated with compound for 10 minutes at room temperature. Then the substrate (phosphorylated insulin receptor probe sequence: ((OG488)-(NH—CH2—CH2—O—CH2—CH2—O—CH2—CO)-T-R-D-I-(PY)-E-T-D-Y-Y-R-K-K-NH2) (SEQ ID NO: 2) was added at […] to the plates and incubated for another 10 minutes at room temperature. Finally, a quench solution (water and 4-bromo-3-(2-oxo-2-propoxyethoxy)-5-(3-{[1-(phenylmethanesulfonyl)piperidin-4-yl]amino}phenyl)thiophene-2-carboxylic acid) was added to the plates, which were then run on the EZ Reader (excitation 488 nm, emission 530 nm) to measure % conversion (the amount of phosphorylated substrate which was de-phosphorylated by PTPN2). […] The % inhibition was then used to calculate the IC50 values.
In general, IC50 refers to the concentration needed to halve the response being measured. Turning to `O=C1CN(c2c(O)cc3ccc(OCCn4cccn4)cc3c2F)S(=O)(=O)N1` [Compound 188, 5-{1-fluoro-3-hydroxy-7-[2-(1H-pyrazol-1-yl)ethoxy]naphthalen-2-yl}-1λ^6,2,5-thiadiazolidine-1,1,3-trione], the IC50 lay in the range of 1 to 10 nM.

Take `O=C1CN(c2c(O)cc3ccc(C4=CCN(S(=O)(=O)CCCC(F)(F)F)C4)cc3c2F)S(=O)(=O)N1` [Compound 290, 5-{1-fluoro-3-hydroxy-7-[1-(4,4,4-trifluorobutane-1-sulfonyl)-2,5-dihydro-1H-pyrrol-3-yl]naphthalen-2-yl}-1λ^6,2,5-thiadiazolidine-1,1,3-trione]: the IC50 is < 1 nM.

For `O=C1CN(c2c(O)cc3ccc(-c4cccnc4)cc3c2F)S(=O)(=O)N1` [Compound 266, 5-[1-fluoro-3-hydroxy-7-(pyridin-3-yl)naphthalen-2-yl]-1λ^6,2,5-thiadiazolidine-1,1,3-trione], the IC50 lay within 1 to 10 nM.

With `O=C1CN(c2c(O)cc3ccc(CNCC4CC4)cc3c2F)S(=O)(=O)N1` [Compound 161, 5-(7-{[(cyclopropylmethyl)amino]methyl}-1-fluoro-3-hydroxynaphthalen-2-yl)-1λ^6,2,5-thiadiazolidine-1,1,3-trione], the concentration for half-maximal inhibition (IC50) lay in the range of 10 to 100 nM.

For the compound `COC(=O)[C@@H](N)CCOc1ccc2cc(O)c(N3CC(=O)NS3(=O)=O)c(F)c2c1` [Compound 317, methyl (2S)-2-amino-4-{[8-fluoro-6-hydroxy-7-(1,1,4-trioxo-1λ^6,2,5-thiadiazolidin-2-yl)naphthalen-2-yl]oxy}butanoate], the IC50 is 1 to 10 nM.

For `O=C1CN(c2c(O)cc3ccc(OCC(F)(F)F)cc3c2F)S(=O)(=O)N1` [Compound 197, 5-[1-fluoro-3-hydroxy-7-(2,2,2-trifluoroethoxy)naphthalen-2-yl]-1λ^6,2,5-thiadiazolidine-1,1,3-trione], the IC50 was 1 to 10 nM.

For the compound `O=C1CN(c2c(O)cc3ccc(C4=CCN(S(=O)(=O)c5ccccc5)C4)cc3c2F)S(=O)(=O)N1` [Compound 315, 5-{7-[1-(benzenesulfonyl)-2,5-dihydro-1H-pyrrol-3-yl]-1-fluoro-3-hydroxynaphthalen-2-yl}-1λ^6,2,5-thiadiazolidine-1,1,3-trione], the IC50 is < 1 nM.

For `COCC1(CCOc2ccc3cc(O)c(N4CC(=O)NS4(=O)=O)c(F)c3c2)CC1` [Compound 160, 5-(1-fluoro-3-hydroxy-7-{2-[1-(methoxymethyl)cyclopropyl]ethoxy}naphthalen-2-yl)-1λ^6,2,5-thiadiazolidine-1,1,3-trione], the IC50 was 1 to 10 nM.

On to `O=C1CN(c2c(O)cc3ccc(C4=CCN(S(=O)(=O)c5ccoc5)C4)cc3c2F)S(=O)(=O)N1` [Compound 312, 5-{1-fluoro-7-[1-(furan-3-sulfonyl)-2,5-dihydro-1H-pyrrol-3-yl]-3-hydroxynaphthalen-2-yl}-1λ^6,2,5-thiadiazolidine-1,1,3-trione], for which the IC50 is < 1 nM.

Regarding `N#Cc1c[nH]c(-c2ccc3cc(O)c(N4CC(=O)NS4(=O)=O)c(F)c3c2)n1` [Compound 321, 2-[8-fluoro-6-hydroxy-7-(1,1,4-trioxo-1λ^6,2,5-thiadiazolidin-2-yl)naphthalen-2-yl]-1H-imidazole-4-carbonitrile], the IC50 was 1 to 10 nM.

Take `CC(C)OCCNc1ccc2cc(O)c(N3CC(=O)NS3(=O)=O)c(F)c2c1` [Compound 172, 5-[1-fluoro-3-hydroxy-7-({2-[(propan-2-yl)oxy]ethyl}amino)naphthalen-2-yl]-1λ^6,2,5-thiadiazolidine-1,1,3-trione]: the half-maximal inhibitory concentration (IC50) is 1 to 10 nM.

Take `CC1(COc2ccc3cc(O)c(N4CC(=O)NS4(=O)=O)c(F)c3c2)COC1` [Compound 230, 5-{1-fluoro-3-hydroxy-7-[(3-methyloxetan-3-yl)methoxy]naphthalen-2-yl}-1λ^6,2,5-thiadiazolidine-1,1,3-trione]: the IC50 was in the range of 1 to 10 nM.

For the compound `Cc1n[nH]c(C)c1-c1ccc2cc(O)c(N3CC(=O)NS3(=O)=O)c(F)c2c1` [Compound 319, 5-[7-(3,5-dimethyl-1H-pyrazol-4-yl)-1-fluoro-3-hydroxynaphthalen-2-yl]-1λ^6,2,5-thiadiazolidine-1,1,3-trione], the IC50 fell in the range of 1 to 10 nM.

On to `CCP(=O)(CC)CCCOc1ccc2cc(O)c(N3CC(=O)NS3(=O)=O)c(F)c2c1` [Compound 146, 5-{7-[3-(diethylphosphoryl)propoxy]-1-fluoro-3-hydroxynaphthalen-2-yl}-1λ^6,2,5-thiadiazolidine-1,1,3-trione], for which the IC50 fell in the range of 1 to 10 nM.

On to `O=C1CN(c2c(O)cc3ccc(CC4CCN(CC(F)(F)F)C4)cc3c2F)S(=O)(=O)N1` (stereo not drawn) [Compound 251, 5-(1-fluoro-3-hydroxy-7-{[1-(2,2,2-trifluoroethyl)pyrrolidin-3-yl]methyl}naphthalen-2-yl)-1λ^6,2,5-thiadiazolidine-1,1,3-trione], for which the IC50 lay within 1 to 10 nM.

For `O=C1CN(c2c(O)cc3ccc(C4CCCO4)cc3c2F)S(=O)(=O)N1` (stereo not drawn) [Compound 190], the IC50 is 1 to 10 nM.

Consider `O=C1CN(c2c(O)cc3ccc(OCCCn4cccn4)cc3c2F)S(=O)(=O)N1` [Compound 183, 5-{1-fluoro-3-hydroxy-7-[3-(H-pyrazol-1-yl)propoxy]naphthalen-2-yl}-1λ^6,2,5-thiadiazolidine-1,1,3-trione], for which the IC50 was 1 to 10 nM.

`CNCCOc1ccc2cc(O)c(N3CC(=O)NS3(=O)=O)c(F)c2c1` [Compound 143, 5-{1-fluoro-3-hydroxy-7-[2-(methylamino)ethoxy]naphthalen-2-yl}-1λ^6,2,5-thiadiazolidine-1,1,3-trione]: the IC50 lay within 1 to 10 nM.

With `O=C1CN(c2c(O)cc3ccc(OCCNCCOC(F)(F)F)cc3c2F)S(=O)(=O)N1` [Compound 137, 5-[1-fluoro-3-hydroxy-7-(2-{[2-(trifluoromethoxy)ethyl]amino}ethoxy)naphthalen-2-yl]-1λ^6,2,5-thiadiazolidine-1,1,3-trione], the IC50 was in the range of 1 to 10 nM.

On to `COCCS(=O)(=O)N1CC=C(c2ccc3cc(O)c(N4CC(=O)NS4(=O)=O)c(F)c3c2)C1` [Compound 286, 5-{1-fluoro-3-hydroxy-7-[1-(2-methoxyethanesulfonyl)-2,5-dihydro-1H-pyrrol-3-yl]naphthalen-2-yl}-1λ^6,2,5-thiadiazolidine-1,1,3-trione], for which the IC50 is < 1 nM.

With `CC(C)CCNc1ccc2c(F)c(O)c(N3CC(=O)NS3(=O)=O)c(F)c2c1` [Compound 148, 5-{1,4-difluoro-3-hydroxy-7-[(3-methylbutyl)amino]naphthalen-2-yl}-1λ^6,2,5-thiadiazolidine-1,1,3-trione], the half-inhibitory concentration (IC50) is 1 to 10 nM.

As to `O=C1CN(c2c(O)cc3ccc(C4=CCN(S(=O)(=O)C5CCC5)C4)cc3c2F)S(=O)(=O)N1` [Compound 316, 5-{7-[1-(cyclobutanesulfonyl)-2,5-dihydro-1H-pyrrol-3-yl]-1-fluoro-3-hydroxynaphthalen-2-yl}-1λ^6,2,5-thiadiazolidine-1,1,3-trione], the IC50 is < 1 nM.

On to `CC(C)CN(C)CCOc1ccc2cc(O)c(N3CC(=O)NS3(=O)=O)c(F)c2c1` [Compound 253, 5-(1-fluoro-3-hydroxy-7-{2-[methyl(2-methylpropyl)amino]ethoxy}naphthalen-2-yl)-1λ^6,2,5-thiadiazolidine-1,1,3-trione], for which the IC50 lay in the range of 1 to 10 nM.

In the case of `C[C@@H](O)CCCc1ccc2cc(O)c(N3CC(=O)NS3(=O)=O)c(F)c2c1` [Compound 151, 5-{1-fluoro-3-hydroxy-7-[(4R)-4-hydroxypentyl]naphthalen-2-yl}-1λ^6,2,5-thiadiazolidine-1,1,3-trione], the IC50 fell in the range of 1 to 10 nM.

On to `CNCCCc1ccc2cc(O)c(N3CC(=O)NS3(=O)=O)c(F)c2c1` [Compound 139, 5-{1-fluoro-3-hydroxy-7-[3-(methylamino)propyl]naphthalen-2-yl}-1λ^6,2,5-thiadiazolidine-1,1,3-trione], for which the IC50 lay within 1 to 10 nM.

On to `O=C1CN(c2c(O)c(Br)c3ccc(C4=CCN(S(=O)(=O)C5CC5)C4)cc3c2F)S(=O)(=O)N1` [Compound 231A, 5-{4-bromo-7-[1-(cyclopropanesulfonyl)-2,5-dihydro-1H-pyrrol-3-yl]-1-fluoro-3-hydroxynaphthalen-2-yl}-1λ^6,2,5-thiadiazolidine-1,1,3-trione], for which the IC50 fell in the range of 1 to 10 nM.

As to `O=C(CNc1ccc2cc(O)c(N3CC(=O)NS3(=O)=O)c(F)c2c1)NCCC1CC1` [Compound 268, N-(2-cyclopropylethyl)-2-{[8-fluoro-6-hydroxy-7-(1,1,4-trioxo-1λ^6,2,5-thiadiazolidin-2-yl)naphthalen-2-yl]amino}acetamide], the IC50 lay within 1 to 10 nM.
